According to patent publication US20250129078A1, “ERBB2 INHIBITORS” (Cogent Biosciences, Inc., priority 2023, published 2025):

These molecules were tested against EGFR WT (Homo sapiens (Human), UniProt P00533) (assay: ErbB enzyme assay (CisBio HTRF-KinEASE-TK), EGFR WT). Conditions: ATP at Km (25 μM), 1 h incubation.
Format: biochemical
Procedure, shortened: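 HTRF KinEASE-TK kinase assay, 1 h at ambient temperature with three-fold serial compound dilutions, then 1 h detection with Sa-XL665/TK-Ab-Cryptate. IC50 is the 50 POC point of a 4-parameter logistic fit.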

EGFR WT, sequence (P00533 25-1210): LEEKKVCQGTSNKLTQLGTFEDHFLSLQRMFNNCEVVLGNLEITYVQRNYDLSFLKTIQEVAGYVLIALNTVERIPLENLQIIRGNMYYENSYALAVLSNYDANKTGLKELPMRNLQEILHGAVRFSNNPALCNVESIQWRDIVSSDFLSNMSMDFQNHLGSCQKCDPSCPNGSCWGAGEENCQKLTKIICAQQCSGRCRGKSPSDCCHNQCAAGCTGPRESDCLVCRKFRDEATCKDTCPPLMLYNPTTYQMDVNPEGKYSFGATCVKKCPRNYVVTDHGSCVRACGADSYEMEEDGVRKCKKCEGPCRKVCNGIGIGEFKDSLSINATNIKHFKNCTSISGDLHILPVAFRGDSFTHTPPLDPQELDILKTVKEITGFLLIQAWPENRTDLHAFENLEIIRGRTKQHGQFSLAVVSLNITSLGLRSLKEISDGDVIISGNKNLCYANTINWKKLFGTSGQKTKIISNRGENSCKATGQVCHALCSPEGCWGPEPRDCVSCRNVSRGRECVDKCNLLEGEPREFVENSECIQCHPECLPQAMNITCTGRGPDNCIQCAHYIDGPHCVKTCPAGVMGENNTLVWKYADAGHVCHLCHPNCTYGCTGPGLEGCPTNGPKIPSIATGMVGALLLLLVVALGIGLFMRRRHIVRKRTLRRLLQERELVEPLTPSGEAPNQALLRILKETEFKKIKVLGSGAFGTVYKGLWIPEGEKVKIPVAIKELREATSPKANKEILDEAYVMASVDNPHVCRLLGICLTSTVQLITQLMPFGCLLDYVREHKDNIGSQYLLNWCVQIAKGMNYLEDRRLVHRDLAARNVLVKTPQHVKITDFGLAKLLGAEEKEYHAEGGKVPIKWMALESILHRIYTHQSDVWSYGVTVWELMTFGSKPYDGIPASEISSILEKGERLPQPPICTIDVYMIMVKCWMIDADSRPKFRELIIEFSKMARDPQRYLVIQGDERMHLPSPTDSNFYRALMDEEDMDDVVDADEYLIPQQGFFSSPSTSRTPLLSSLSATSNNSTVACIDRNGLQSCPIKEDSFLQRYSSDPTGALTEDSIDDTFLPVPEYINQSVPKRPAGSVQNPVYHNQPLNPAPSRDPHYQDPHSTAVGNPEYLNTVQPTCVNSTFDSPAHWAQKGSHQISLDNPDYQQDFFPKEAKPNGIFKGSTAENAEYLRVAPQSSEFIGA

Which IC50 does the source give for C=CC(=O)N[C@]1(C)CCN(c2ncc3ncnc(Nc4ccc(Oc5ccc6c(c5)nnn6C)c(C)c4)c3n2)C1 [Compound 144, (R)-N-(3-methyl-1-(8-((3-methyl-4-((1-methyl-1H-benzo[d][1,2,3]triazol-5-yl)oxy)phenyl)amino)pyrimido[5,4-d]pyrimidin-2-yl)pyrrolidin-3-yl)acrylamide] here?
The IC50 was < 50 nM.

How did the IC50 turn out when C=CC(=O)N[C@@]1(C)CCN(c2ncc3ncnc(Nc4ccc(Oc5ccc6c(c5)nnn6C)c(C)c4)c3n2)C1 [Compound 145, (S)-N-(3-methyl-1-(8-((3-methyl-4-((1-methyl-1H-benzo[d][1,2,3]triazol-5-yl)oxy)phenyl)amino)pyrimido[5,4-d]pyrimidin-2-yl)pyrrolidin-3-yl)acrylamide] was run?
Its IC50 is 100 to 500 nM.

C=CC(=O)N[C@@]1(C)CCCN(c2ncc3ncnc(Nc4ccc(Oc5ccc6c(c5)nnn6C)c(C)c4)c3n2)C1 [Compound 146, (S)-N-(3-methyl-1-(8-((3-methyl-4-((1-methyl-1H-benzo[d][1,2,3]triazol-5-yl)oxy)phenyl)amino)pyrimido[5,4-d]pyrimidin-2-yl)piperidin-3-yl)acrylamide] was tested. Which IC50 did it give?
The IC50 was 500 to 1000 nM.

For C=CC(=O)N[C@@H]1CCN(c2ncc3ncnc(Nc4ccc(Oc5ccc6c(c5)nnn6C)c(C)c4)c3n2)C1 [Compound 153, (R)-N-(1-(8-((3-methyl-4-((1-methyl-1H-benzo[d][1,2,3]triazol-5-yl)oxy)phenyl)amino)pyrimido [5,4-d]pyrimidin-2-yl)pyrrolidin-3-yl)acrylamide], which IC50 is on record?
Its IC50 is 100 to 500 nM.

Which IC50 does the source give for C=CC(=O)N[C@H]1CCN(c2ncc3ncnc(Nc4ccc(Oc5ccc6c(c5)nnn6C)c(C)c4)c3n2)C1 [Compound 154, (S)-N-(1-(8-((3-methyl-4-((1-methyl-1H-benzo[d][1,2,3]triazol-5-yl)oxy)phenyl)amino)pyrimido [5,4-d]pyrimidin-2-yl)pyrrolidin-3-yl)acrylamide] here?
Its IC50 is 100 to 500 nM.

C=CC(=O)N1CCN(c2ncc3ncnc(Nc4ccc(Oc5cc(F)c6c(c5)ncn6C)c(C)c4)c3n2)C[C@H]1C [Compound 159, (R)-1-(4-(8-((4-((7-fluoro-1-methyl-1H-benzo[d]imidazol-5-yl)oxy)-3-methylphenyl)amino)pyrimido[5,4-d]pyrimidin-2-yl)-2-methylpiperazin-1-yl)prop-2-en-1-one] was tested. Which IC50 did it give?
The IC50 was 50 to 100 nM.

Which IC50 does the source give for C=CC(=O)N1CCN(c2ncc3ncnc(Nc4ccc(Oc5cc(F)c6c(c5)ncn6C)c(C)c4F)c3n2)C[C@H]1CC [Compound 160, (R)-1-(2-ethyl-4-(8-((2-fluoro-4-((7-fluoro-1-methyl-1H-benzo[d]imidazol-5-yl)oxy)-3-methylphenyl)amino)pyrimido[5,4-d]pyrimidin-2-yl)piperazin-1-yl)prop-2-en-1-one] here?
Its IC50 is < 50 nM.

With C=CC(=O)N[C@]1(C)CCN(c2ncc3ncnc(Nc4ccc(Oc5ccc6c(c5)nnn6C)c(C)c4F)c3n2)C1 [Compound 161, (R)-N-(1-(8-((2-fluoro-3-methyl-4-((1-methyl-1H-benzo[d][1,2,3]triazol-5-yl)oxy)phenyl)amino)pyrimido[5,4-d]pyrimidin-2-yl)-3-methylpyrrolidin-3-yl)acrylamide] as the molecule, how does the IC50 read?
Its IC50 is < 50 nM.

With C=CC(=O)N1CCN(c2ncc3ncnc(Nc4ccc(Oc5ccc6c(c5)ncn6C(F)F)c(C)c4)c3n2)C[C@H]1C [Compound 162, (R)-1-(4-(8-((4-((1-(difluoromethyl)-1H-benzo[d]imidazol-5-yl)oxy)-3-methylphenyl)amino)pyrimido[5,4-d]pyrimidin-2-y1)-2-methylpiperazin-1-yl)prop-2-en-1-one] as the molecule, how does the IC50 read?
The IC50 was 100 to 500 nM.

For C=CC(=O)N1CCN(c2ncc3ncnc(Nc4ccc(Oc5cc(F)c6c(c5)ncn6C)c(C)c4)c3n2)C[C@H]1CC [Compound 163, (R)-1-(2-ethyl-4-(8-((4-((7-fluoro-1-methyl-1H-benzo[d]imidazol-5-yl)oxy)-3-methylphenyl)amino)pyrimido[5,4-d]pyrimidin-2-yl)piperazin-1-yl)prop-2-en-1-one], which IC50 is on record?
The IC50 was 100 to 500 nM.

C=CC(=O)N1CCCN(c2ncc3ncnc(Nc4ccc(Oc5ccc6c(c5)nnn6C)c(C)c4)c3n2)C[C@@H]1C [Compound 165, (S)-1-(2-methyl-4-(8-((3-methyl-4-((1-methyl-1H-benzo[d][1,2,3]triazol-5-yl)oxy)phenyl)amino)pyrimido[5,4-d]pyrimidin-2-y1)-1,4-diazepan-1-yl)prop-2-en-1-one] was tested. Which IC50 did it give?
Its IC50 is ≥ 1000 nM.

For C=CC(=O)N[C@H]1CCCN(c2ncc3ncnc(Nc4ccc(Oc5ccc6c(c5)nnn6C)c(C)c4F)c3n2)CC1 [Compound 168, (S)-N-(1-(8-((2-fluoro-3-methyl-4-((1-methyl-1H-benzo[d][1,2,3]triazol-5-yl)oxy)phenyl)amino)pyrimido[5,4-d]pyrimidin-2-yl)azepan-4-yl)acrylamide], which IC50 is on record?
Its IC50 is 500 to 1000 nM.

With C=CC(=O)N1CCN(c2ncc3ncnc(Nc4ccc(Oc5cc(F)c6c(c5)nnn6C)c(C)c4)c3n2)C[C@H]1C [Compound 171, (R)-1-(4-(8-((4-((7-fluoro-1-methyl-1H-benzo[d][1,2,3]triazol-5-yl)oxy)-3-methylphenyl)amino)pyrimido[5,4-d]pyrimidin-2-y1)-2-methylpiperazin-1-yl)prop-2-en-1-one] as the molecule, how does the IC50 read?
Its IC50 is 50 to 100 nM.

With C=CC(=O)N[C@@H]1CCCN(c2ncc3ncnc(Nc4ccc(Oc5ccc6c(c5)nnn6C)c(C)c4F)c3n2)CC1 [Compound 172, (R)-N-(1-(8-((2-fluoro-3-methyl-4-((1-methyl-1H-benzo[d][1,2,3]triazol-5-yl)oxy)phenyl)amino)pyrimido[5,4-d]pyrimidin-2-yl)azepan-4-yl)acrylamide] as the molecule, how does the IC50 read?
Its IC50 is ≥ 1000 nM.

For C=CC(=O)N[C@@H]1CCCN(c2ncc3ncnc(Nc4ccc(Oc5cc(F)c6c(c5)nnn6C)c(C)c4F)c3n2)C1 [Compound 178, (R)-N-(1-(8-((2-fluoro-4-((7-fluoro-1-methyl-1H-benzo[d][1,2,3]triazol-5-yl)oxy)-3-methylphenyl)amino)pyrimido[5,4-d]pyrimidin-2-yl)piperidin-3-yl)acrylamide], which IC50 is on record?
The IC50 was < 50 nM.

How did the IC50 turn out when C=CC(=O)N1CCN(c2ncc3ncnc(Nc4ccc(Oc5cc(F)c6c(c5)ncn6C)c(C)c4)c3n2)CC[C@@H]1C [Compound 179, (S)-1-(4-(8-((4-((7-fluoro-1-methyl-1H-benzo[d]imidazol-5-yl)oxy)-3-methylphenyl)amino)pyrimido[5,4-d]pyrimidin-2-y1)-7-methyl-1,4-diazepan-1-yl)prop-2-en-1-one] was run?
The IC50 was 100 to 500 nM.

C=CC(=O)N1CCN(c2ncc3ncnc(Nc4ccc(Oc5cc(F)c6c(c5)ncn6C)c(C)c4F)c3n2)CC[C@@H]1C [Compound 181, (S)-1-(4-(8-((2-fluoro-4-((7-fluoro-1-methyl-1H-benzo[d]imidazol-5-yl)oxy)-3-methylphenyl)amino)pyrimido[5,4-d]pyrimidin-2-y1)-7-methyl-1,4-diazepan-1-yl)prop-2-en-1-one] was tested. Which IC50 did it give?
Its IC50 is < 50 nM.

Which IC50 does the source give for C=CC(=O)N1CCN(c2ncc3ncnc(Nc4ccc(Oc5cc6ncnn6cc5C)c(C)c4)c3n2)C[C@H]1C [Compound 182] here?
Its IC50 is 500 to 1000 nM.

For C=CC(=O)N1[C@H](C)CN(c2ncc3ncnc(Nc4ccc(Oc5ccc6c(c5)nnn6C)c(C)c4)c3n2)C[C@H]1C [Compound 183, 1-((2R,6R)-2,6-dimethyl-4-(8-((3-methyl-4-((1-methyl-1H-benzo[d][1,2,3]triazol-5-yl)oxy)phenyl)amino)pyrimido[5,4-d]pyrimidin-2-yl)piperazin-1-yl)prop-2-en-1-one], which IC50 is on record?
Its IC50 is ≥ 1000 nM.

Which IC50 does the source give for C=CC(=O)N1[C@@H](C)CN(c2ncc3ncnc(Nc4ccc(Oc5ccc6c(c5)nnn6C)c(C)c4)c3n2)C[C@@H]1C [Compound 184, 1-((2S,6S)-2,6-dimethyl-4-(8-((3-methyl-4-((1-methyl-1H-benzo[d][1,2,3]triazol-5-yl)oxy)phenyl)amino)pyrimido[5,4-d]pyrimidin-2-yl)piperazin-1-yl)prop-2-en-1-one] here?
The IC50 was ≥ 1000 nM.

For C=CC(=O)N1CCN(c2ncc3ncnc(Nc4ccc(Oc5cc6nnn(C)c6cc5F)c(C)c4)c3n2)CC1 [Compound 190, 1-(4-(8-((4-((6-fluoro-1-methyl-1H-benzo[d][1,2,3]triazol-5-yl)oxy)-3-methylphenyl)amino)pyrimido[5,4-d]pyrimidin-2-yl)piperazin-1-yl)prop-2-en-1-one], which IC50 is on record?
The IC50 was 100 to 500 nM.

C=CC(=O)N1CCN(c2ncc3ncnc(Nc4ccc(Oc5cc(F)c6c(c5)nnn6C)c(C)c4F)c3n2)C[C@@H]1C1CC1 [Compound 192, (S)-1-(2-cyclopropyl-4-(8-((2-fluoro-4-((7-fluoro-1-methyl-1H-benzo[d][1,2,3]triazol-5-yl)oxy)-3-methylphenyl)amino)pyrimido[5,4-d]pyrimidin-2-y1)piperazin-1-yl)prop-2-en-1-one] was tested. Which IC50 did it give?
The IC50 was 500 to 1000 nM.

Which IC50 does the source give for C=C(F)C(=O)N1CCN(c2ncc3ncnc(Nc4ccc(Oc5ccc6c(c5)nnn6C)c(C)c4)c3n2)C[C@@H]1COC [Compound 193, (R)-2-fluoro-1-(2-(methoxymethyl)-4-(8-((3-methyl-4-((1-methyl-1H-benzo[d][1,2,3]triazol-5-yl)oxy)phenyl)amino)pyrimido[5,4-d]pyrimidin-2-yl)piperazin-1-yl)prop-2-en-1-one] here?
Its IC50 is ≥ 1000 nM.

For C=CC(=O)N1CCN(c2ncc3ncnc(Nc4cc(F)c(Oc5ccc6c(c5)nnn6C)c(Cl)c4)c3n2)C[C@H]1C [Compound 194, (R)-1-(4-(8-((3-chloro-5-fluoro-4-((1-methyl-1H-benzo[d][1,2,3]triazol-5-yl)oxy)phenyl)amino)pyrimido[5,4-d]pyrimidin-2-y1)-2-methylpiperazin-1-yl)prop-2-en-1-one], which IC50 is on record?
Its IC50 is < 50 nM.

How did the IC50 turn out when C=CC(=O)N1CCN(c2ncc3ncnc(Nc4ccc(Oc5ccc6c(c5)nnn6C(F)(F)F)c(C)c4)c3n2)C[C@H]1C [Compound 195, (R)-1-(2-methyl-4-(8-((3-methyl-4-((1-(trifluoromethyl)-1H-benzo[d][1,2,3]triazol-5-yl)oxy)phenyl)amino)pyrimido[5,4-d]pyrimidin-2-yl)piperazin-1-yl)prop-2-en-1-one] was run?
Its IC50 is 100 to 500 nM.

Which IC50 does the source give for C=CC(=O)N1CCN(c2ncc3ncnc(Nc4ccc(Oc5cc(F)c6c(c5)nnn6C)c(C)c4F)c3n2)C[C@H]1C1CC1 [Compound 197, (R)-1-(2-cyclopropyl-4-(8-((2-fluoro-4-((7-fluoro-1-methyl-1H-benzo[d][1,2,3]triazol-5-yl)oxy)-3-methylphenyl)amino)pyrimido[5,4-d]pyrimidin-2-yl)piperazin-1-yl)prop-2-en-1-one] here?
Its IC50 is 100 to 500 nM.
